According to the NIST ThermoML archive (doi:10.1021/je700699u):
± gives the expanded uncertainty stated by the source.

Test: cn = amount concentration of the nth substance listed, in mol/dm3
Conditions: 101 kPa, Liquid

CNCC(=O)[O-].[K+] [potassium Salt of sarcosine] + O
Conditions | mass density, 298.15 K [kg/m3] | mass density, 303.15 K [kg/m3] | mass density, 313.15 K [kg/m3] | mass density, 323.15 K [kg/m3] | mass density, 333.15 K [kg/m3] | viscosity, 298.15 K [mPa·s] | viscosity, 303.15 K [mPa·s] | viscosity, 313.15 K [mPa·s] | viscosity, 323.15 K [mPa·s] | viscosity, 333.15 K [mPa·s]
c1 = 0.51 | 1024 ± 2 | 1023 ± 2 | 1019 ± 2 | 1015 ± 2 | 1010 ± 2 | 1.018 ± 0.032 | 0.913 ± 0.03 | 0.748 ± 0.025 | 0.627 ± 0.022 | 0.538 ± 0.019
c1 = 1.01 | 1051 ± 2 | 1049 ± 2 | 1045 ± 2 | 1041 ± 2 | 1036 ± 2 | – | – | – | – | –
c1 = 1.019 | – | – | – | – | – | 1.185 ± 0.037 | 1.06 ± 0.034 | 0.876 ± 0.028 | 0.759 ± 0.025 | 0.614 ± 0.021
c1 = 1.534 | 1077 ± 3 | 1074 ± 3 | 1070 ± 3 | 1065 ± 2 | 1060 ± 2 | 1.408 ± 0.043 | 1.252 ± 0.039 | 1.005 ± 0.032 | 0.833 ± 0.027 | 0.703 ± 0.024
c1 = 2.019 | 1103 ± 3 | 1100 ± 3 | 1096 ± 3 | 1091 ± 3 | 1085 ± 3 | 1.663 ± 0.05 | 1.466 ± 0.045 | 1.18 ± 0.037 | 0.968 ± 0.031 | 0.811 ± 0.027
c1 = 2.445 | 1124 ± 3 | 1121 ± 3 | 1117 ± 3 | 1111 ± 3 | 1106 ± 3 | 1.959 ± 0.059 | 1.707 ± 0.052 | 1.356 ± 0.042 | 1.098 ± 0.035 | 0.919 ± 0.03
c1 = 2.987 | 1150 ± 4 | 1148 ± 4 | 1143 ± 4 | 1138 ± 4 | 1132 ± 4 | 2.493 ± 0.074 | 2.185 ± 0.065 | 1.721 ± 0.052 | 1.395 ± 0.043 | 1.115 ± 0.035

CSCCC(N)C(=O)[O-].[K+] (stereo not drawn) [potassium salt of DL-methionine] + O
Conditions | mass density, 298.15 K [kg/m3] | mass density, 303.15 K [kg/m3] | mass density, 313.15 K [kg/m3] | mass density, 323.15 K [kg/m3] | mass density, 333.15 K [kg/m3] | viscosity, 298.15 K [mPa·s] | viscosity, 303.15 K [mPa·s] | viscosity, 313.15 K [mPa·s] | viscosity, 323.15 K [mPa·s] | viscosity, 333.15 K [mPa·s]
c1 = 0.252 | 1016 ± 2 | 1014 ± 2 | 1010 ± 2 | 1006 ± 1 | 1003 ± 1 | 0.987 ± 0.032 | 0.884 ± 0.029 | 0.722 ± 0.024 | 0.608 ± 0.021 | 0.519 ± 0.019
c1 = 0.503 | 1033 ± 2 | 1032 ± 2 | 1027 ± 2 | 1023 ± 2 | 1020 ± 2 | 1.109 ± 0.035 | 0.987 ± 0.032 | 0.806 ± 0.027 | 0.675 ± 0.023 | 0.575 ± 0.02
c1 = 0.732 | 1051 ± 2 | 1049 ± 2 | 1044 ± 2 | 1039 ± 2 | 1037 ± 2 | 1.263 ± 0.039 | 1.125 ± 0.035 | 0.909 ± 0.029 | 0.754 ± 0.025 | 0.64 ± 0.022
c1 = 0.994 | 1067 ± 2 | 1065 ± 2 | 1060 ± 2 | 1055 ± 2 | 1053 ± 2 | 1.425 ± 0.044 | 1.264 ± 0.039 | 1.019 ± 0.033 | 0.84 ± 0.028 | 0.708 ± 0.024
c1 = 1.252 | 1084 ± 3 | 1083 ± 3 | 1077 ± 3 | 1072 ± 3 | 1069 ± 3 | 1.654 ± 0.05 | 1.478 ± 0.045 | 1.161 ± 0.036 | 0.952 ± 0.031 | 0.799 ± 0.026
c1 = 1.479 | 1100 ± 3 | 1098 ± 3 | 1093 ± 3 | 1087 ± 3 | 1085 ± 3 | 1.883 ± 0.057 | 1.657 ± 0.05 | 1.316 ± 0.041 | 1.071 ± 0.034 | 0.893 ± 0.029
